SMILES strings stand for the structures. Starred links: 1 amine or outer side, 2 acyl side, 3 side chain; linkers in the order of their positions; H or OH if unused. Positions of bridges follow the written chain, without caps; N, C: chain ends. Non-standard residues stand in square brackets, D forms with d. Residues, ends and D or L forms follow the SMILES beside them. ξ: configuration not given here. *: point of attachment. Glu(NHSO2Me) = CS(=O)(=O)NC(=O)CC[C@H](N)C(=O)O; NMeAla(4-thiazolyl) = CN[C@@H](Cc1cscn1)C(=O)O; Phe(4-CHF2) = N[C@@H](Cc1ccc(C(F)F)cc1)C(=O)O; NMePhe(3-Cl) = CN[C@@H](Cc1cccc(Cl)c1)C(=O)O; Tyr(3-F) = N[C@@H](Cc1ccc(O)c(F)c1)C(=O)O; X14 = O=C([C@H](CCc1ccccc1Cl)N[*:1])[*:2]; hNle(7,7-F2) = N[C@@H](CCCCC(F)F)C(=O)O; Gly(NCH2CH2Ph) = O=C(O)CNCCc1ccccc1; Hyp = O=C(O)[C@@H]1C[C@@H](O)CN1; NMeF = CN[C@@H](Cc1ccccc1)C(=O)O; NMeGABA = CN(CCCC(=O)[*:2])[*:1]; NMeI = CC[C@H](C)[C@H](NC)C(=O)O; 4Pal = N[C@@H](Cc1ccncc1)C(=O)O; CH2CH(OH)CF3 = OC(C*)C(F)(F)F; NMeL = CN[C@@H](CC(C)C)C(=O)O; NMeV = CN[C@H](C(=O)O)C(C)C; NMeAbu = CC[C@H](NC)C(=O)O; NMeA = CN[C@@H](C)C(=O)O; Piperidide = C1CCN(*)CC1; dAbu = CC[C@@H](N)C(=O)O; Abu = CC[C@H](N)C(=O)O; Me2NCH2CH2 = CN(C)CC*; NBuGly = CCCCNCC(=O)O; Bn = c1ccc(C*)cc1; ξS = NC(CO)C(=O)O; Sar = CNCC(=O)O; tBu = CC(C)(C)*; Propyl = CCC*

The first data set in a line: Caco-2 membrane permeability, improved method as used in the following Examples (96-well, 20 to 24 h preincubation). The following applies: human, Caco-2, Caco-2. The class given is in vitro ADME. The gist of the method: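 Papp (cm/sec) was derived from LC/MS of basal samples collected 180 min after apical dosing in FaSSIF/HBSS pH 6.0 with 1% DMSO, against a basal HBSS pH 7.4 receiver containing 4% BSA. Three-week Caco-2 cultures were first preincubated with compound in DMEM+FaSSIF at 37 °C for 20–24 h.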
The compound `CC[C@H](C)[C@H]1C(=O)N[C@@H]([C@@H](C)O)C(=O)N(C)CC(=O)N(C)[C@@H](CC(C)C)C(=O)N[C@H](C(=O)N2CCCCC2)CC(=O)N(C)[C@@H](C)C(=O)N[C@@H](CCCCC(F)F)C(=O)N(C)[C@@H](CC(C)C)C(=O)N(C)[C@@H](Cc2ccccc2)C(=O)N[C@@H](C(C)C)C(=O)N(C)[C@@H](Cc2ccccc2)C(=O)N1C` [pd334] ([NMeA][hNle(7,7-F2)][NMeL][NMeF]V[NMeF][NMeI]T[Sar][NMeL]D-Piperidide; lactam N-11) gave a Papp A→B at 180 min of 2.4 ×10⁻⁶ cm/s. Compound `CCCCN1CC(=O)N(C)[C@@H](CC(C)C)C(=O)N[C@@H](COC(C)(C)C)C(=O)N(C)[C@@H](Cc2ccccc2)C(=O)N(C)[C@@H](C(C)C)C(=O)N[C@H](C(=O)N2CCCCC2)CC(=O)N[C@H](C(C)C)C(=O)N(C)[C@@H](Cc2ccccc2)C(=O)N[C@@H](CCC(=O)NS(C)(=O)=O)C(=O)N(C)[C@@H](CC(C)C)C(=O)N[C@@H](CC(C)C)C1=O` [pd67] ([dV][NMeF][Glu(NHSO2Me)][NMeL]L[NBuGly][NMeL]S(tBu)[NMeF][NMeV]D-Piperidide; lactam N-11) returned a Papp A→B at 180 min of 0.06 ×10⁻⁶ cm/s. The compound `CC[C@H]1C(=O)N(C)[C@@H](Cc2ccccc2)C(=O)N[C@@H](CC(C)C)C(=O)N(C)[C@@H](Cc2ccccc2)C(=O)N(C)[C@@H](C(C)C)C(=O)N[C@@H](COCC(O)C(F)(F)F)C(=O)N(C)CC(=O)N(C)[C@@H](CC(C)C)C(=O)N[C@H](C(=O)N2CCCCC2)CC(=O)N(C)[C@@H](C)C(=O)N[C@@H](CC(C)C)C(=O)N1C` (stereo partly drawn) [pd503] ([NMeA]L[NMeAbu][NMeF]L[NMeF][NMeV]S(CH2CH(OH)CF3)[Sar][NMeL]D-Piperidide; lactam N-11) came in with a Papp A→B at 180 min of 2 ×10⁻⁶ cm/s.

Consider `CCO[C@@H]1C[C@H]2C(=O)N[C@@H](Cc3ccccc3)C(=O)N(C)[C@@H](CC(C)C)C(=O)N[C@H](C(=O)N3CCCCC3)CC(=O)N[C@H](CC)C(=O)N(C)[C@@H](CC(C)C)C(=O)N[C@@H](COC(C)(C)C)C(=O)N(C)[C@@H](CC(C)C)C(=O)N[C@@H](CC(C)C)C(=O)N(C)[C@@H](CC(C)C)C(=O)N[C@@H]([C@@H](C)O)C(=O)N2C1` [pd375] ([dAbu][NMeL]S(tBu)[NMeL]L[NMeL]T[Hyp](Et)F[NMeL]D-Piperidide; lactam N-11), for which the Papp A→B at 180 min is 2.9 ×10⁻⁶ cm/s.

For `CC[C@H](C)[C@@H]1NC(=O)[C@H](CC(C)C)N(C)C(=O)CN(C)C(=O)C[C@@H](C(=O)N2CCCCC2)NC(=O)[C@H](CC(C)C)N(C)C(=O)[C@@H](COC(C)(C)C)NC(=O)[C@H](CC)N(C)C(=O)[C@H](Cc2ccccc2)N(C)C(=O)CN(CCc2ccccc2)C(=O)[C@H]([C@@H](C)O)NC(=O)[C@H](CC)N(C)C1=O` [pd411] ([Sar][NMeL]I[NMeAbu]T[Gly(NCH2CH2Ph)][NMeF][NMeAbu][dS](tBu)[NMeL]D-Piperidide; lactam N-11), the apical-to-basolateral permeability (Papp A→B) at 180 min was 3.3 ×10⁻⁶ cm/s. The same measure, in the same setting: under `CCCOC[C@@H]1NC(=O)[C@H](Cc2ccccc2)N(C)C(=O)[C@H](Cc2ccccc2)N(C)C(=O)[C@H](C(C)C)NC(=O)[C@H](CC(C)C)N(C)C(=O)CCCN(C)C(=O)C[C@@H](C(=O)N2CCCCC2)NC(=O)[C@H](CC(C)C)N(C)C(=O)[C@H](CC(C)C)N(C)C(=O)[C@H]([C@@H](C)O)NC(=O)[C@H](CC(C)C)N(C)C1=O` [pd328] ([NMeGABA][NMeL]V[NMeF][NMeF]S(Propyl)[NMeL]T[NMeL][NMeL]D-Piperidide; lactam N-11) stands 2.3 ×10⁻⁶ cm/s. Take `CC(C)C[C@H]1C(=O)N[C@@H](COC(C)(C)C)C(=O)N(C)[C@@H](C)C(=O)N(C)[C@@H](CC(C)C)C(=O)N[C@H](C(=O)N2CCCCC2)CC(=O)N[C@H](C)C(=O)N(C)[C@@H](Cc2ccccc2)C(=O)N[C@@H](COc2ccccc2Cl)C(=O)N(C)[C@@H](CC(C)C)C(=O)N[C@@H]([C@@H](C)O)C(=O)N(C)CC(=O)N1C` [pd340]: the apical-to-basolateral permeability (Papp A→B) at 180 min is 1.2 ×10⁻⁶ cm/s. Same read-out and setting: then `CC[C@H](C)[C@@H]1NC(=O)[C@H](CC(C)C)N(C)C(=O)CN(C)C(=O)C[C@@H](C(=O)N2CCCCC2)NC(=O)[C@H](C(C)C)N(C)C(=O)[C@H](Cc2ccc(C(F)F)cc2)NC(=O)[C@H](CC(C)C)N(C)C(=O)[C@H](Cc2ccccc2)N(C)C(=O)CN(C)C(=O)[C@H]([C@@H](C)O)NC(=O)[C@H](CC(C)C)N(C)C1=O` [pd475] ([Sar][NMeL]I[NMeL]T[Sar][NMeF][NMeL][Phe(4-CHF2)][NMeV]D-Piperidide; lactam N-11), with 4.2 ×10⁻⁶ cm/s; and `CC[C@@H]1NC(=O)[C@H](Cc2ccccc2)N(C)C(=O)[C@H](CC(C)C)N(C)C(=O)[C@H](CC(C)C)NC(=O)[C@H](CC)N(C)C(=O)C[C@@H](C(=O)N2CCCCC2)NC(=O)[C@H](CC(C)C)N(C)C(=O)CN(C)C(=O)[C@H]([C@@H](C)O)NC(=O)CN(CCc2ccccc2)C(=O)[C@H](CC(C)C)N(C)C1=O` [pd415] ([NMeAbu]L[NMeL][NMeF][Abu][NMeL][Gly(NCH2CH2Ph)]T[Sar][NMeL]D-Piperidide; lactam N-11), with 3.3 ×10⁻⁶ cm/s. As for `CC(C)C[C@@H]1NC(=O)[C@H](CC(C)C)N(C)C(=O)CCCN(C)C(=O)C[C@@H](C(=O)N2CCCCC2)NC(=O)[C@H](CC(C)C)N(C)C(=O)[C@H](CC(C)C)N(C)C(=O)[C@H]([C@@H](C)O)NC(=O)[C@H](CC(C)C)N(C)C(=O)[C@H](COCCN(C)C)NC(=O)[C@H](Cc2ccccc2)N(C)C(=O)[C@H](Cc2ccccc2)N(C)C1=O` [pd54] ([NMeGABA][NMeL]L[NMeF][NMeF]S(Me2NCH2CH2)[NMeL]T[NMeL][NMeL]D-Piperidide; lactam N-11), the Papp A→B at 180 min was found to be 0.073 ×10⁻⁶ cm/s.

`CC[C@H](C)[C@@H]1NC(=O)[C@H](Cc2ccccc2)N(C)C(=O)CN(C)C(=O)C[C@@H](C(=O)N2CCCCC2)NC(=O)[C@H]([C@@H](C)CC)N(C)C(=O)C(COCc2ccccc2)NC(=O)[C@H](CC(C)C)N(C)C(=O)[C@H](Cc2ccccc2)N(C)C(=O)CN(C)C(=O)[C@H]([C@@H](C)O)NC(=O)[C@H](CC(C)C)N(C)C1=O` (stereo partly drawn) [pd370] ([Sar][NMeF]I[NMeL]T[Sar][NMeF][NMeL][ξS](Bn)[NMeI]D-Piperidide; lactam N-11): the Papp A→B at 180 min was 2.5 ×10⁻⁶ cm/s. In turn, `CC[C@H](C)[C@H]1C(=O)N[C@@H]([C@@H](C)O)C(=O)N(C)CC(=O)N(C)[C@@H](CC(C)C)C(=O)N[C@H](C(=O)N2CCCCC2)CC(=O)N(C)[C@@H](C)C(=O)N[C@@H](CCc2ccccc2Cl)C(=O)N(C)[C@@H](CC(C)C)C(=O)N(C)[C@@H](CC(C)C)C(=O)N[C@@H](C)C(=O)N(C)[C@@H](Cc2ccccc2)C(=O)N1C` [pd352] ([NMeA][X14][NMeL][NMeL]A[NMeF][NMeI]T[Sar][NMeL]D-Piperidide; lactam N-11) gave a Papp A→B at 180 min of 1.4 ×10⁻⁶ cm/s. Compared with the last compound, the Papp A→B at 180 min is about 1.8-fold lower.

The same data set, now with this note: human, Caco-2, Caco-2 (cm/sec).
For the compound `CC[C@H](C)[C@@H]1NC(=O)[C@H](CC(C)C)N(C)C(=O)[C@@H](C)NC(=O)C[C@@H](C(=O)N2CCCCC2)NC(=O)[C@H](C)N(C)C(=O)[C@H](Cc2ccccc2)N(C)C(=O)[C@H](COC(C)(C)C)NC(=O)[C@H](CC(C)C)N(C)C(=O)CN(C)C(=O)[C@H](Cc2ccc(O)c(F)c2)NC(=O)[C@H](CC(C)C)N(C)C1=O` [pd124] ([dA][NMeL]I[NMeL][Tyr(3-F)][Sar][NMeL]S(tBu)[NMeF][NMeA]D-Piperidide; lactam N-11), the Papp A→B at 180 min worked out at 0.32 ×10⁻⁶ cm/s. Still for that read-out and setting: under `CC(C)C[C@@H]1NC(=O)[C@H](CC(C)C)N(C)C(=O)[C@@H](CC(C)C)NC(=O)C[C@@H](C(=O)N2CCCCC2)NC(=O)[C@H](CC(C)C)N(C)C(=O)[C@H](Cc2cccc(Cl)c2)N(C)C(=O)[C@H](Cc2ccncc2)NC(=O)[C@H](CC(C)C)N(C)C(=O)CN(C)C(=O)[C@H]([C@@H](C)O)NC(=O)[C@H](CC(C)C)N(C)C1=O` [pd172] ([dL][NMeL]L[NMeL]T[Sar][NMeL][4Pal][NMePhe(3-Cl)][NMeL]D-Piperidide; lactam N-11) stands 1.1 ×10⁻⁶ cm/s.

For the compound `CC(C)C[C@@H]1NC(=O)[C@H]([C@@H](C)O)NC(=O)[C@H](CC(C)C)N(C)C(=O)C[C@@H](C(=O)N2CCCCC2)NC(=O)[C@H](COC(C)(C)C)NC(=O)[C@H](Cc2ccccc2)NC(=O)[C@H](C)N(C)C(=O)[C@H](Cc2ccccc2)NC(=O)CN(C)C(=O)[C@H](Cc2ccccc2)N(C)C(=O)[C@H](Cc2ccccc2)N(C)C1=O` [pd245] ([NMeL]TL[NMeF][NMeF][Sar]F[NMeA]FS(tBu)D-Piperidide; lactam N-11), the apical-to-basolateral permeability (Papp A→B) at 180 min is 0.019 ×10⁻⁶ cm/s. This Papp A→B at 180 min lies about 58-fold lower than the previous one. Still for that read-out and setting: then `CC(C)C[C@H]1C(=O)N[C@H](C(=O)N2CCCCC2)CC(=O)N(C)CCCC(=O)N(C)[C@@H](CC(C)C)C(=O)N[C@@H](Cc2ccc(O)c(F)c2)C(=O)N(C)[C@@H](CC(C)C)C(=O)N(C)[C@@H](Cc2ccccc2)C(=O)N[C@@H](COC(C)(C)C)C(=O)N(C)[C@@H](CC(C)C)C(=O)N[C@@H]([C@@H](C)O)C(=O)N(C)CC(=O)N1C` [pd114] ([NMeGABA][NMeL][Tyr(3-F)][NMeL][NMeF]S(tBu)[NMeL]T[Sar][NMeL]D-Piperidide; lactam N-11), with 0.17 ×10⁻⁶ cm/s. On the same count and under the same terms, then `CC(C)C[C@@H]1NC(=O)[C@H](CC(C)C)N(C)C(=O)C[C@@H](C(=O)N2CCCCC2)NC(=O)[C@H](CC(C)C)N(C)C(=O)CN(C)C(=O)[C@H]([C@@H](C)O)NC(=O)[C@H](Cc2cscn2)N(C)C(=O)[C@H](Cc2ccccc2)N(C)C(=O)[C@H](Cc2ccccc2)NC(=O)[C@H](Cc2ccccc2)N(C)C(=O)[C@H](CC(C)C)N(C)C1=O` [pd228] ([NMeL]L[NMeL][NMeF]F[NMeF][NMeAla(4-thiazolyl)]T[Sar][NMeL]D-Piperidide; lactam N-11), with 0.58 ×10⁻⁶ cm/s.

Values taken from US20200131669A1, “CYCLIC PEPTIDE COMPOUND HAVING HIGH MEMBRANE PERMEABILITY, AND LIBRARY CONTAINING SAME” (Chugai Seiyaku Kabushiki Kaisha, priority 2017, published 2020).
